Tested on: rpS6
Assay: Western blot of rpS6 phosphorylation in Shank3 knock down primary neurons
Format: cell-based, rat
Excerpt: E18 primary rat cortical neurons were dissected, cultured and infected 6 days after plating (DIV6) with indicated lentiviruses at MOI 10, as previously described (Proenca et al., 2013). Lentiviruses were produced by calcium phosphate transfection of HEK293T cells with packaging plasmids (Life Technologies) and transfer plasmid in 10 cm dishes. Cells were transferred to fresh medium 6 hrs. post-transfection. Four days post-transfection, the cell medium was collected and pooled from several dishes, cleared of cellular debris by 0.45 μm filtration, and concentrated 100× by centrifugation at 19,000 g for 90 min in a Beckman Ultracentrifuge using a SW28/SW32 rotor. Pellets were suspended in PBS/0.5% BSA and viral titer was determined by ELISA quantification of viral p24 antigen (Zeptometrix Corp, USA). For shRNA plasmid generation, oligonucleotides were annealed and ligated into lentiviral transfer plasmid pLKO.1-GFP vector at the AgeI/EcoRI sites. The target sequences of shRNAs that target rat and mouse Shank3 (5′-3′) are: […] (SEQ ID NO: 1), […] (SEQ ID NO: 2), and […] (SEQ ID NO: 3). The latter was previously reported (Verpelli et al., 2011). A luciferase-targeting sequence was used as an shRNA control: […] (SEQ ID NO: 4). […]

Row | Structure (SMILES) | rpS6 phosphorylation (Shank3 knock down primary neurons, SC79 treatment) | rpS6 phosphorylation (Shank3 knock-down (shShank3) neurons, TG003 (FIG. 3F))
1 | CCOC(=O)C1=C(N)Oc2ccc(Cl)cc2C1C(C#N)C(=O)OCC (centres unmarked) [SC79] | restored Akt and rpS6 phosphorylation | 
2 | CCN1/C(=C/C(C)=O)Sc2ccc(OC)cc21 [TG003, (Z)-1-(3-ethyl-5-methoxy-2,3-dihydrobenzothiazol-2-ylidene)propan-2-one] |  | restores Akt and rpS6 phosphorylation
